From patent US9951065B2 (Gilead Sciences, Inc., priority 2015, dated 2018)

Target: T1, IDO1 (Homo sapiens, UniProt P14902)
T1 construct: HeLa cells were treated with a test compound in the presence of IFNγ, which induces IDO1 expression; host or cells: H1-HeLa cells, IDO1 induced with IFNγ
Test: Cell-based (HeLa) assay for measurement of IDO1 inhibition (kynurenine levels in supernatant after IFNγ induction)
Details: HeLa cells, geometric mean of a minimum of four determinations
How it was run: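 IDO1 activity is read as kynurenine released into the medium, detected with Ehrlich's reagent (p-dimethylaminobenzaldehyde) at 480 nm after TCA treatment. HeLa cells were exposed 48 h to compounds in 0.5% DMSO alongside IFNγ induction. Values normalized to no-IFNγ and IFNγ controls; four-parameter EC50 given as geometric mean of ≥4 determinations.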

[1] = IFNγ-induced IDO1, kynurenine in supernatant, 48 hour incubation
[2] = IFNγ-induced IDO1, kynurenine in supernatant after 48 hour incubation

T1 sequence (P14902 whole entry): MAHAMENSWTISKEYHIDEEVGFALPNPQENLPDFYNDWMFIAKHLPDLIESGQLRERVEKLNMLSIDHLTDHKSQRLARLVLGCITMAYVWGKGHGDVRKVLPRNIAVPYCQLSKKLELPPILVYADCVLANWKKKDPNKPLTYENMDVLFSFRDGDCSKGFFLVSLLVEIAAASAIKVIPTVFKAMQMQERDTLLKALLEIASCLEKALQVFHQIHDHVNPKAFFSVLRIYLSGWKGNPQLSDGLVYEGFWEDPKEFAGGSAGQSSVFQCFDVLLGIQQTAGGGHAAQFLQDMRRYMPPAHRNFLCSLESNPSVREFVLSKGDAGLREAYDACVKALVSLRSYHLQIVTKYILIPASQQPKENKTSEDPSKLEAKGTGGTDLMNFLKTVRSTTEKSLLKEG

EC50 [1] [nM] | EC50 [2] [nM] | SMILES
 | 2060 | COCCNCc1nc2nccc(/C(=N/O)Nc3ccc(F)c(Cl)c3)c2[nH]1 [Example 124, N-(3-Chloro-4-fluorophenyl)-N′-hydroxy-2-(((2-methoxyethyl)amino)methyl)-1H-imidazo[4,5-b]pyridine-7-carboximidamide]
 | 1090 | O/N=C(\Nc1ccc(F)c(Cl)c1)c1ccnc2nc(NCC(F)(F)F)[nH]c12 [Example 157, N-(3-Chloro-4-fluorophenyl)-N′-hydroxy-2-((2,2,2-trifluoroethyl)amino)-1H-imidazo[4,5-b]pyridine-7-carboximidamide]
668 |  | CC1CN(C(C)CNc2nc3nccc(/C(=N/O)Nc4ccc(F)c(Cl)c4)c3[nH]2)CC(C)O1 (centres unmarked) [Example 483, N-(3-chloro-4-fluorophenyl)-2-((2-(2,6-dimethylmorpholino)propyl)amino)-N′-hydroxy-1H-imidazo[4,5-b]pyridine-7-carboximidamide]
 | 4640 | O/N=C(\Nc1ccc(F)c(Cl)c1)c1ccnc2nc(CNCC(F)(F)F)[nH]c12 [Example 118, N-(3-Chloro-4-fluorophenyl)-N′-hydroxy-2-(((2,2,2-trifluoroethyl)amino)methyl)-1H-imidazo[4,5-b]pyridine-7-carboximidamide]
 | > 10000 | NS(=O)(=O)NCCc1nc2nccc(/C(=N/O)Nc3ccc(F)c(Cl)c3)c2[nH]1 [Example 267, N-(3-chloro-4-fluorophenyl)-N′-hydroxy-2-(2-(sulfamoylamino)ethyl)-1H-imidazo[4,5-b]pyridine-7-carboximidamide]
 | 531 | CCN(CC)CCc1nc2nccc(/C(=N/O)Nc3ccc(F)c(Cl)c3)c2[nH]1 [Example 185, N-(3-Chloro-4-fluorophenyl)-2-(2-(diethylamino)ethyl)-N′-hydroxy-1H-imidazo[4,5-b]pyridine-7-carboximidamide]
 | 590 | CC(C)N(C)CCNc1nc2nccc(/C(=N/O)Nc3ccc(F)c(Cl)c3)c2[nH]1 [Example 240, N-(3-chloro-4-fluorophenyl)-N′-hydroxy-2-((2-(isopropyl(methyl)amino)ethyl)amino)-1H-imidazo[4,5-b]pyridine-7-carboximidamide]
3240 |  | CC(Cc1nc2nccc(/C(=N/O)Nc3ccc(F)c(Cl)c3)c2[nH]1)N(C)C (centres unmarked) [Example 328, N-(3-chloro-4-fluorophenyl)-2-(2-(dimethylamino)propyl)-N′-hydroxy-1H-imidazo[4,5-b]pyridine-7-carboximidamide]
 | 2400 | OCCc1nc2nccc(/C(=N/O)Nc3ccc(F)c(Cl)c3)c2[nH]1 [Example 183, N-(3-Chloro-4-fluorophenyl)-N′-hydroxy-2-(2-hydroxyethyl)-1H-imidazo[4,5-b]pyridine-7-carboximidamide]
639 |  | CC1CN(CCNc2nc3nccc(/C(=N/O)Nc4ccc(F)c(Cl)c4)c3[nH]2)C(C)CO1 (centres unmarked) [Example 485, N-(3-chloro-4-fluorophenyl)-2-((2-(2,5-dimethylmorpholino)ethyl)amino)-N′-hydroxy-1H-imidazo[4,5-b]pyridine-7-carboximidamide]
 | 765 | O/N=C(\Nc1ccc(F)c(Cl)c1)c1ccnc2nc(CNCC3CC3)[nH]c12 [Example 117, N-(3-Chloro-4-fluorophenyl)-2-(((cyclopropylmethyl)amino)methyl)-N′-hydroxy-1H-imidazo[4,5-b]pyridine-7-carboximidamide]
 | 2190 | O/N=C(\Nc1ccc(F)c(Cl)c1)c1ccnc2nc(NCC(F)F)[nH]c12 [Example 225, N-(3-chloro-4-fluorophenyl)-2-((2,2-difluoroethyl)amino)-N′-hydroxy-1H-imidazo[4,5-b]pyridine-7-carboximidamide]
 | 1160 | O/N=C(\Nc1ccc(F)c(Cl)c1)c1ccnc2nc(NCCN3CCOCC3)[nH]c12 [Example 168, N-(3-Chloro-4-fluorophenyl)-N′-hydroxy-2-((2-morpholinoethyl)amino)-1H-imidazo[4,5-b]pyridine-7-carboximidamide]
 | 1830 | CS(=O)(=O)CCNc1nc2c(F)ccc(/C(=N/O)Nc3ccc(F)c(Cl)c3)c2[nH]1 [Example 33, N-(3-Chloro-4-fluorophenyl)-4-fluoro-N′-hydroxy-2-((2-(methylsulfonyl)ethyl)amino)-1H-benzo[d]imidazole-7-carboximidamide]

Further lines, the compound ahead of its results:

SMILES | EC50 [1] [nM] | EC50 [2] [nM]
CCNC(=O)NCCNc1nc2c(F)c(F)cc(/C(=N/O)Nc3ccc(F)c(Cl)c3)c2[nH]1 [Example 341, N-(3-chloro-4-fluorophenyl)-2-((2-(3-ethylureido)ethyl)amino)-4,5-difluoro-N′-hydroxy-1H-benzo[d]imidazole-7-carboximidamide] | > 10000 | 
O/N=C(\Nc1ccc(F)c(Cl)c1)c1cc(F)cc2nc[nH]c12 [Example 4, N-(3-Chloro-4-fluorophenyl)-5-fluoro-N′-hydroxy-1H-benzo[d]imidazole-7-carboximidamide] |  | 527
CN(C)CCc1nc2c(/C(=N/O)Nc3ccc(F)c(Br)c3)cc(F)c(F)c2[nH]1 [Example 54, N-(3-Bromo-4-fluorophenyl)-2-(2-(dimethylamino)ethyl)-6,7-difluoro-N′-hydroxy-1H-benzo[d]imidazole-4-carboximidamide] |  | 461
O/N=C(\Nc1ccc(F)c(Cl)c1)c1cc(F)c(F)c2nc(NCCN3CCCC3)[nH]c12 [Example 41, N-(3-Chloro-4-fluorophenyl)-4,5-difluoro-N′-hydroxy-2-((2-(pyrrolidin-1-yl)ethyl)amino)-1H-benzo[d]imidazole-7-carboximidamide] |  | 240
COc1cc(N/C(=N\O)c2ccnc3nc[nH]c23)ccc1F [Example 106, N-(4-Fluoro-3-methoxyphenyl)-N′-hydroxy-1H-imidazo[4,5-b]pyridine-7-carboximidamide] |  | 5540
O=c1onc(-c2ccnc3nc(CO)[nH]c23)n1-c1ccc(F)c(Cl)c1 [Example 111, 4-(3-Chloro-4-fluorophenyl)-3-(2-(hydroxymethyl)-1H-imidazo[4,5-b]pyridin-7-yl)-1,2,4-oxadiazol-5(4H)-one] |  | 4450
O/N=C(\Nc1cc(Cl)c(F)c(Cl)c1)c1ccnc2nc[nH]c12 [Example 63, N-(3,5-Dichloro-4-fluorophenyl)-N′-hydroxy-1H-imidazo[4,5-b]pyridine-7-carboximidamide] |  | 774
CN(CCc1nc2nccc(/C(=N/O)Nc3ccc(F)c(Cl)c3)c2[nH]1)CCC1CCOCC1 [Example 401, N-(3-chloro-4-fluorophenyl)-N′-hydroxy-2-(2-(methyl(2-(tetrahydro-2H-pyran-4-yl)ethyl)amino)ethyl)-1H-imidazo[4,5-b]pyridine-7-carboximidamide] | 581 | 
O/N=C(\Nc1ccc(F)c(Cl)c1)c1ccnc2nc(CN3CCCCC3)[nH]c12 [Example 140, N-(3-Chloro-4-fluorophenyl)-N′-hydroxy-2-(piperidin-1-ylmethyl)-1H-imidazo[4,5-b]pyridine-7-carboximidamide] |  | 1610
CN(CCc1nc2nccc(/C(=N/O)Nc3ccc(F)c(Cl)c3)c2[nH]1)CC1CCOCC1 [Example 399, N-(3-chloro-4-fluorophenyl)-N′-hydroxy-2-(2-(methyl((tetrahydro-2H-pyran-4-yl)methyl)amino)ethyl)-1H-imidazo[4,5-b]pyridine-7-carboximidamide] | 1330 | 
CNCc1nc2c(F)c(F)cc(/C(=N/O)Nc3cccc(Cl)c3)c2[nH]1 [Example 30, N-(3-Chlorophenyl)-4,5-difluoro-N′-hydroxy-2-((methylamino)methyl)-1H-benzo[d]imidazole-7-carboximidamide] |  | 1110
CN(C)Cc1nc2c(F)c(F)cc(/C(=N/O)Nc3cccc(Cl)c3)c2[nH]1 [Example 26, N-(3-Chlorophenyl)-2-((dimethylamino)methyl)-4,5-difluoro-N′-hydroxy-1H-benzo[d]imidazole-7-carboximidamide] |  | 1210
Cn1ccnc1CNc1nc2c(F)c(F)cc(/C(=N/O)Nc3ccc(F)c(Cl)c3)c2[nH]1 [Example 349, N-(3-chloro-4-fluorophenyl)-4,5-difluoro-N′-hydroxy-2-(((1-methyl-1H-imidazol-2-yl)methyl)amino)-1H-benzo[d]imidazole-7-carboximidamide] | 2540 | 
CN(C)C1(CNc2nc3c(F)c(F)cc(/C(=N/O)Nc4ccc(F)c(Cl)c4)c3[nH]2)CCC1 [Example 441, N-(3-chloro-4-fluorophenyl)-2-(((1-(dimethylamino)cyclobutyl)methyl)amino)-4,5-difluoro-N′-hydroxy-1H-benzo[d]imidazole-7-carboximidamide] | > 10000 | 
O/N=C(\Nc1ccc(F)c(Cl)c1)c1cc(F)c(F)c2nc(NCc3cccnc3)[nH]c12 [Example 343, N-(3-chloro-4-fluorophenyl)-4,5-difluoro-N′-hydroxy-2-((pyridin-3-ylmethyl)amino)-1H-benzo[d]imidazole-7-carboximidamide] | 3860 | 
CN(C)CC(C)(C)CNc1nc2c(F)ccc(/C(=N/O)Nc3ccc(F)c(Cl)c3)c2[nH]1 [Example 381, N-(3-chloro-4-fluorophenyl)-2-((3-(dimethylamino)-2,2-dimethylpropyl)amino)-4-fluoro-N′-hydroxy-1H-benzo[d]imidazole-7-carboximidamide] | 3030 | 
CC(C)(O)Cc1nc2c(F)c(F)cc(/C(=N/O)Nc3ccc(F)c(Cl)c3)c2[nH]1 [Example 302, N-(3-chloro-4-fluorophenyl)-4,5-difluoro-N′-hydroxy-2-(2-hydroxy-2-methylpropyl)-1H-benzo[d]imidazole-7-carboximidamide] | > 10000 | 
O/N=C(\Nc1ccc(F)c(Cl)c1)c1ccc(Br)c2nc[nH]c12 [Example 12, 4-Bromo-N-(3-chloro-4-fluorophenyl)-N′-hydroxy-1H-benzo[d]imidazole-7-carboximidamide] |  | 660
